From paper PMC12751012, “Nanoscale Direct-to-Biology Optimization and Structural Insights into Selective S. aureus TrmD Inhibitors” (Journal of Medicinal Chemistry, 2025)

Biological target: T1, S. aureus TrmD (Staphylococcus aureus, UniProt Q2FZ43)
T1 construct: made in house; host or cells: E. coli BL21
T1 sequence (Q2FZ43 1-245): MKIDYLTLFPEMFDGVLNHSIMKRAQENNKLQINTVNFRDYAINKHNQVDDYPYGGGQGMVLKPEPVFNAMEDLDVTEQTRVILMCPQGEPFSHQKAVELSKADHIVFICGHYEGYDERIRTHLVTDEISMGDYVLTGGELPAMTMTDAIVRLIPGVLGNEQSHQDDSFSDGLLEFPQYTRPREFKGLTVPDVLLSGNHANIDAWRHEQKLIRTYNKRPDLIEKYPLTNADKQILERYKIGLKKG
Experiment: nanoSAR direct-to-biology FP displacement screening of crude triazoles
Assay type: binding
Conditions: crude triazole at 1 μM, assuming full conversion; 500 nM TrmD, 10 nM tracer 4; read-out: % displaced tracer
From the text: Next, we conducted an S. aureus TrmD-targeting nanoSAR study. For this, alkyne 7 was reacted on a 96 nmol scale with an in-house diversity-oriented azide library (N = 320, mean pairwise Tanimoto similarity = 0.11) designed to cover a large chemical fragment space, generating a panel of 320 crude triazoles ready for FP assay investigation. The composition of the azide library is designed to be chemically diverse in several categories, including physicochemical properties such as polar surface area, lipophilicity, and the number of hydrogen bond donors and acceptors, as well as structural features like the number of aromatic rings (Figure S23). A complete list of chemical structures included in the azide library can be found in Table S4. In situ reaction conditions for CuAAC were adapted from Gehrtz et al., utilizing CuSO4, which is reduced in situ to Cu(I) by sodium ascorbate and stabilized by TBTA. Degassed water and DMSO (1:1) were used as solvents to prevent the oxidation from Cu(I) to Cu(II). For the synthesis of the triazole library, a master mix was prepared, containing all reaction components except the azides. All reactions were started by the addition of the respective azide in 24 μL at a final product concentration of 4 mM (96 nmol). Reaction mixtures were incubated for 16 h at room temperature and under an argon atmosphere in sealed 96-well plates.
For FP assay screening, we used 500 nM of S. aureus TrmD and 10 nM of tracer 4 in a total volume of 40 μL in 96-well plates. We performed control measurements and defined 10 nM of tracer 4 in buffer as 100% displacement and the DMSO control as 0% tracer displacement. […] The results of the FP screening were visualized in a waterfall plot and plate-based heatmaps (Figure , Figure S3).
Fluorescence polarization (FP) assays were performed as follows. The assays for H. influenzae TrmD have been described previously. All assays were conducted in technical triplicate using black 96-well half area plates. For the FP assays, a tracer (20 nM Cy5TPD for E. coli and H. influenzae TrmD, 10 nM tracer 4 for S. aureus TrmD) was mixed with the respective enzyme (2 μM E. coli TrmD, 2 μM H. influenzae TrmD, 500 nM S. aureus TrmD) in buffer (E. coli and H. influenzae TrmD: 50 mM HEPES, 500 mM NaCl, 5% Glycerol, pH 7.5, S. aureus TrmD: 40 mM Tris HCl, 100 mM NaCl, 10 mM MgCl2, 5% Glycerol, pH 7.5). The compounds were added in varying concentrations for K D-value determination. […] The Z-factor for tracer 4 was determined by measuring 48 replicates of the free tracer (positive controls, PC) and 48 replicates of a mixture of enzyme and tracer (negative controls, NC). The Z-factor is defined in terms of the means (μ) and standard deviations (σ) of the positive and negative controls and calculated as Z = 1–(3*(σnc + σpc)/(μnc–μpc)). […] Polarization values (mP) were determined from polarization-specific parallel and orthogonal fluorescence intensities. K D-values were calculated in GraphPad Prism 8.0.1 using the four-parameter Hill equation: y(% tracer bound) = bottom + ([ligand]-slope) × (top–bottom)/([ligand]-slope + K Dslope).
A commercial azide diversity library (Enamine) containing 320 azides at a concentration of 100 mM in DMSO in a 96-well tube rack was employed for this nanoSAR study. For the reaction of the azides with alkyne 7 via CuAAC, a master mix was prepared. […] The solvents were degassed with argon to avoid oxidation of the copper(I) during the reaction. To each well of a 96-well PCR plate (Applied Biosystems MicroAmp) were added 23 μL of the master mix and 1 μL of the 100 mM azide stock. The final concentrations in the Mastermix were: 8.7 mM sodium ascorbate (8.3 mM in reaction well), 1.1 mM TBTA (1.0 mM in reaction well), 4.3 mM 7 (4.1 mM in reaction well), 1.3 mM CuSO4×5 H2O (1.2 mM in reaction well).

| Structure (SMILES) | inhibition at 1 µM [%] |
| --- | --- |
| N#Cc1ccc(Cn2cc(-c3c[nH]c4nc[nH]c(=O)c34)nn2)c(F)c1 [Compound 01A01, Fc1c(ccc(C#N)c1)CN2N=NC(C=3C=4C(=O)NC=NC4NC3)=C2] | 12 |
| O=c1[nH]cnc2[nH]cc(-c3cn(Cc4cnn(-c5ccccc5)c4)nn3)c12 [Compound 01A02, O=C1NC=NC=2NC=C(C=3N=NN(C3)CC=4C=NN(c5ccccc5)C4)C12] | 81 |
| O=c1[nH]cnc2[nH]cc(-c3cn(Cc4cccnn4)nn3)c12 [Compound 01A03, O=C1NC=NC=2NC=C(C=3N=NN(C3)Cc4nnccc4)C12] | 65 |
| O=c1[nH]cnc2[nH]cc(-c3cn(CCN4CCCC4)nn3)c12 [Compound 01A04, O=C1NC=NC=2NC=C(C=3N=NN(C3)CC[NH+]4CCCC4)C12] | 22 |
| CC(C)n1cc(-c2c[nH]c3nc[nH]c(=O)c23)nn1 [Compound 01A05, O=C1NC=NC=2NC=C(C=3N=NN(C3)C(C)C)C12] | 23 |
| O=c1[nH]cnc2[nH]cc(-c3cn(C[C@H]4CCC[C@@]5(CCOC5)O4)nn3)c12 [Compound 01A06, O=C1NC=NC=2NC=C(C=3N=NN(C3)C[C@@H]4O[C@@]5(COCC5)CCC4)C12] | 52 |
| O=c1[nH]cnc2[nH]cc(-c3cn(Cc4cc(C5CC5)no4)nn3)c12 [Compound 01A07, O=C1NC=NC=2NC=C(C=3N=NN(C3)CC=4ON=C(C4)C5CC5)C12] | 77 |
| O=c1[nH]cnc2[nH]cc(-c3cn([C@@H]4C[C@H]5CCC[C@@H](C4)N5)nn3)c12 [Compound 01A08, O=C1NC=NC=2NC=C(C=3N=NN(C3)[C@@H]4C[C@@H]5[NH2+][C@H](C4)CCC5)C12] | 38 |
| CC(C)CCn1cc(-c2c[nH]c3nc[nH]c(=O)c23)nn1 [Compound 01A09, O=C1NC=NC=2NC=C(C=3N=NN(C3)CCC(C)C)C12] | 26 |
| O=C(Cn1cc(-c2c[nH]c3nc[nH]c(=O)c23)nn1)Nc1ccccc1 [Compound 01A10, O=C1NC=NC=2NC=C(C=3N=NN(C3)CC(=O)Nc4ccccc4)C12] | 41 |
| O=c1[nH]cnc2[nH]cc(-c3cn(C[C@@H]4CC(F)(F)CO4)nn3)c12 [Compound 01A11, F[C@]1(F)CO[C@H](CN2N=NC(C=3C=4C(=O)NC=NC4NC3)=C2)C1] | 44 |
| COc1cccc(C2(n3cc(-c4c[nH]c5nc[nH]c(=O)c45)nn3)CCC2)c1 [Compound 01A12, O=C1NC=NC=2NC=C(C=3N=NN(C3)C4(c5cc(OC)ccc5)CCC4)C12] | 10 |
| O=c1[nH]cnc2[nH]cc(-c3cn([C@H]4CCCNC4)nn3)c12 [Compound 01B01, O=C1NC=NC=2NC=C(C=3N=NN(C3)[C@@H]4C[NH2+]CCC4)C12] | 29 |
| Cc1ccc2nc(Cn3cc(-c4c[nH]c5nc[nH]c(=O)c45)nn3)cn2c1 [Compound 01B02, O=C1NC=NC=2NC=C(C=3N=NN(C3)CC=4N=C5N(C4)C=C(C=C5)C)C12] | 57 |
| O=c1[nH]cnc2[nH]cc(-c3cn(-c4ccc5c(c4)CCO5)nn3)c12 [Compound 01B03, O=C1NC=NC=2NC=C(C=3N=NN(c4cc5c(OCC5)cc4)C3)C12] | 52 |
| Cc1ccc2c(c1)[C@H](n1cc(-c3c[nH]c4nc[nH]c(=O)c34)nn1)CCC2 [Compound 01B04, O=C1NC=NC=2NC=C(C=3N=NN(C3)[C@H]4c5c(ccc(c5)C)CCC4)C12] | 27 |
| O=c1[nH]cnc2[nH]cc(-c3cn(C4CC4)nn3)c12 [Compound 01B05, O=C1NC=NC=2NC=C(C=3N=NN(C3)C4CC4)C12] | 12 |
| O=c1[nH]cnc2[nH]cc(-c3cn(CC4CNC4)nn3)c12 [Compound 01B06, O=C1NC=NC=2NC=C(C=3N=NN(C3)CC4C[NH2+]C4)C12] | 62 |

| Structure (SMILES) | inhibition at 1 µM [%] |
| --- | --- |
| O=c1[nH]cnc2[nH]cc(-c3cn([C@@H]4CCOC5(CCNCC5)C4)nn3)c12 [Compound 01B07, O=C1NC=NC=2NC=C(C=3N=NN(C3)[C@H]4CC5(OCC4)CC[NH2+]CC5)C12] | 34 |
| O=c1[nH]cnc2[nH]cc(-c3cn(Cc4nc5ccccc5[nH]4)nn3)c12 [Compound 01B08, O=C1NC=NC=2NC=C(C=3N=NN(C3)CC4=Nc5c(N4)cccc5)C12] | 43 |
| O=c1[nH]cnc2[nH]cc(-c3cn(CCCCF)nn3)c12 [Compound 01B09, FCCCCN1N=NC(C=2C=3C(=O)NC=NC3NC2)=C1] | 19 |
| O=c1[nH]cnc2[nH]cc(-c3cn(CC4CCCCC4)nn3)c12 [Compound 01B10, O=C1NC=NC=2NC=C(C=3N=NN(C3)CC4CCCCC4)C12] | 33 |
| O=c1[nH]cnc2[nH]cc(-c3cn(-c4ccc(OC(F)(F)F)c(Cl)c4)nn3)c12 [Compound 01B11, Clc1c(OC(F)(F)F)ccc(N2N=NC(C=3C=4C(=O)NC=NC4NC3)=C2)c1] | 16 |
| CCOCCn1cc(-c2c[nH]c3nc[nH]c(=O)c23)nn1 [Compound 01B12, O=C1NC=NC=2NC=C(C=3N=NN(C3)CCOCC)C12] | 21 |
| C[C@@H](c1cnnn1C)n1cc(-c2c[nH]c3nc[nH]c(=O)c23)nn1 [Compound 01C01, O=C1NC=NC=2NC=C(C=3N=NN(C3)[C@H](C=4N(N=NC4)C)C)C12] | 33 |
| Cc1nnc(Cn2cc(-c3c[nH]c4nc[nH]c(=O)c34)nn2)o1 [Compound 01C02, O=C1NC=NC=2NC=C(C=3N=NN(C3)CC=4OC(=NN4)C)C12] | 27 |
| O=c1[nH]cnc2[nH]cc(-c3cn([C@@H]4CCc5cc(Cl)ccc54)nn3)c12 [Compound 01C03, Clc1cc2c(cc1)[C@H](N3N=NC(C=4C=5C(=O)NC=NC5NC4)=C3)CC2] | 72 |
| O=c1[nH]cnc2[nH]cc(-c3cn(Cc4noc5c4CCC5)nn3)c12 [Compound 01C04, O=C1NC=NC=2NC=C(C=3N=NN(C3)CC4=NOC5=C4CCC5)C12] | 41 |
| O=c1[nH]cnc2[nH]cc(-c3cn(CCF)nn3)c12 [Compound 01C05, FCCN1N=NC(C=2C=3C(=O)NC=NC3NC2)=C1] | 22 |
| O=c1[nH]cnc2[nH]cc(-c3cn(C[C@H]4CCCO4)nn3)c12 [Compound 01C06, O=C1NC=NC=2NC=C(C=3N=NN(C3)C[C@@H]4OCCC4)C12] | 24 |
| COCc1cccc(-n2cc(-c3c[nH]c4nc[nH]c(=O)c34)nn2)c1 [Compound 01C07, O=C1NC=NC=2NC=C(C=3N=NN(c4cc(ccc4)COC)C3)C12] | 17 |
| O=c1[nH]cnc2[nH]cc(-c3cn(CCCOC4CCC4)nn3)c12 [Compound 01C08, O=C1NC=NC=2NC=C(C=3N=NN(C3)CCCOC4CCC4)C12] | 27 |
| O=c1[nH]cnc2[nH]cc(-c3cn(Cc4ncon4)nn3)c12 [Compound 01C09, O=C1NC=NC=2NC=C(C=3N=NN(C3)CC4=NOC=N4)C12] | 31 |
| CCN(CC)C(=O)Cn1cc(-c2c[nH]c3nc[nH]c(=O)c23)nn1 [Compound 01C10, O=C1NC=NC=2NC=C(C=3N=NN(C3)CC(=O)N(CC)CC)C12] | 25 |
| O=c1[nH]cnc2[nH]cc(-c3cn(CCn4ccccc4=O)nn3)c12 [Compound 01C11, O=C1N(C=CC=C1)CCN2N=NC(C=3C=4C(=O)NC=NC4NC3)=C2] | 52 |
